Results as given in patent US12644097B2, “Differentiation of trophectoderm lineage cells from pluripotent stem cells” (The United States of America, as represented by the …, priority 2020, dated 2026).

Assays:
[1] = system: trophoblast stem-like cells; experiment: Passaging of trophoblast stem-like cells in TE3 medium with or without Chroman 1 or CEPT supplementation; assay type: cell-based, human; details: additional 25 nM Chroman 1, alone or as component of CEPT, in TE3 medium (total 50 nM Chroman 1) for first 24 hours after passaging; WA09-derived cells, reproduced with JHU191i, JHU198i, MCW032i, WA07
Procedure: To generate self-renewing trophoblast stem-like cells from the syncytiotrophoblast-like structures, the syncytiotrophoblast-like structures were cultured in TE3 medium: TE2 medium supplemented with 300 nM CHIR98014, 100 ng/ml EGF, 50 ng/ml HGF, 80 ng/ml R-spondin 1, 50 ng/ml R-spondin 3, 2.5 μM prostaglandin E2 and 25 nM Chroman 1. Trophoblast stem-like cells appeared in the cultures and started proliferating after a very short time following the start of the culturing into TE3 medium. The cells created compact epithelial-like colonies with cobblestone morphology and clearly defined border. The individual cells gradually became more compact. This morphological transformation was most obvious at passage 3 performed in TE3 medium.
The trophoblast stem-like cells were cultured in TE3 medium with or without CEPT supplementation, and also with or without Chroman 1 supplementation. For Chroman 1 or CEPT supplementation, when the trophoblast stem-like cells were passaged, the cells were seeded into TE3 medium supplemented with either an additional 25 nM Chroman 1 (for Chroman 1 supplementation) or CEPT containing 25 nM Chroman 1 (for CEPT supplementation). Since TE3 medium already contained 25 nM Chroman 1, only another 25 nM was added either alone or as a component of CEPT, so that the total concentration of Chroman 1 in TE3 medium was 50 nM for the first 24 hours after passaging. […]

[2] = cited from earlier work; for IC50: as described in Sidrauski et al. eLIFE 2:e00498 (2013)

COc1ccc2c(c1)C[C@H](C(=O)Nc1ccc(-c3cn[nH]c3)cc1OCCN(C)C)CO2 [Chroman 1, (3S)—N-{2-[2-(Dimethylamino)ethoxy]-4-(1H-pyrazol-4-yl)phenyl}-6-methoxy-3,4-dihydro-2H-1-benzopyran-3-carboxamide]
effect of supplementation at passaging on trophoblast stem-like cells [1]: benefited

O=C(COc1ccc(Cl)cc1)NC1CCC(NC(=O)COc2ccc(Cl)cc2)CC1 (stereo not drawn) [cis-ISRIB]
IC50 [2]: 600 nM

O=C(COc1ccc(Cl)cc1)N[C@H]1CC[C@H](NC(=O)COc2ccc(Cl)cc2)CC1 [trans-ISRIB, N,N′-((1r,4r)-cyclohexane-1,4-diyl)bis(2-(4-chlorophenoxy)acetamide)]
IC50 [2]: 5 nM
potency of trans-ISRIB relative to cis-ISRIB ([2]; trans-ISRIB more potent than cis-ISRIB, Sidrauski et al. 2013): 100 fold
